Test [1] relates to rabbit serum obtained by immunizing a rabbit with the SARS-CoV strain Frankfurt 1. In kind it is binding. Also noted: Binding of a rabbit serum to linear peptides / Binding of a rabbit serum to looped peptides / Rabbit serum linear peptides / Rabbit serum looped peptides / Binding of a rabbit serum to linear peptides of protein N of SARS-CoV Urbani (Rabbit serum linear peptides) / Binding of a rabbit serum to looped/cyclic peptides of protein N of SARS-CoV Urbani (Rabbit serum looped peptides): unit not given here.

Test [2] relates to control sera (pooled serum of ten healthy LUMC hospital workers; commercial negative donor pooled serum from the Dutch bloodbank). In kind it is binding, human. Also noted: Binding of Control serum LUMC to linear peptides / Binding of Control serum Blood-bank to linear peptides / Binding of Control serum LUMC to looped peptides / Binding of Control Serum Blood-Bank to Looped peptides / Binding of Control serum LUMC to linear peptides of the protein M of SARS-CoV Urbani / Binding of Control serum Blood-bank to linear peptides of the protein M of SARS-CoV Urbani / Binding of Control serum LUMC to looped peptides of the protein M of SARS-CoV Urbani / Binding of Control Serum Blood-Bank to Looped peptides of the protein M of SARS-CoV Urbani: unit not given here.

Test [3] relates to antibodies in sera from SARS patients (sera 1a, 1b, 2, 6, 37, 62, London, SARS-yellow, SARS-green). Type of test: binding, human. Also noted: Binding of serum 6 to linear peptides of protein X1 of SARS-CoV Urbani / Binding of serum 37 to linear peptides of protein X1 of SARS-CoV Urbani / Binding of serum 6 to looped/cyclic peptide (PEPSCAN-ELISA) / Binding of serum 37 to looped/cyclic peptide (PEPSCAN-ELISA) / Binding of serum 37 to looped/cyclic peptides of protein X1 of SARS-CoV Urbani / Binding of serum 6 to linear peptides of protein X2 / Binding of serum 37 to linear peptides of protein X2 / Binding of serum 37 to looped/cyclic peptides of protein X2 of SARS-CoV Urbani / Binding of serum 6 to linear peptides of protein M of SARS-CoV Urbani / Binding of serum 37 to linear peptides of protein M of SARS-CoV Urbani / Binding of serum 6 to looped/cyclic peptides of protein M of SARS-CoV Urbani / Binding of serum 37 to looped/cyclic peptides of protein M of SARS-CoV Urbani / Binding of serum 6 to linear peptides of protein X3 of SARS-CoV Urbani / Binding of serum 37 to linear peptides of protein X3 of SARS-CoV Urbani / Binding of serum 37 to looped/cyclic peptides of protein X3 of SARS-CoV Urbani / Binding of serum 6 to linear peptides of protein X4 of SARS-CoV Urbani / Binding of serum 37 to linear peptides of protein X4 of SARS-CoV Urbani / Binding of serum 37 to looped/cyclic peptides of protein X4 of SARS-CoV Urbani / Binding of serum 6 to linear peptides of protein X5 of SARS-CoV Urbani / Binding of serum 37 to linear peptides of protein X5 of SARS-CoV Urbani / Binding of serum 37 to looped/cyclic peptides of protein X5 of SARS-CoV Urbani / Binding of serum 6 to linear peptides of protein N of SARS-CoV Urbani / Binding of serum 37 to linear peptides of protein N of SARS-CoV Urbani / Binding of serum 6 to linear peptide (PEPSCAN-ELISA) / Binding of serum 1a to looped/cyclic peptides of protein N of SARS-CoV Urbani / Binding of serum 1b to looped/cyclic peptides of protein N of SARS-CoV Urbani / Binding of serum 2 to looped/cyclic peptides of protein N of SARS-CoV Urbani / Binding of serum 6 to looped/cyclic peptides of protein N of SARS-CoV Urbani / Binding of serum 37 to looped/cyclic peptides of protein N of SARS-CoV Urbani / Binding of serum 62 to looped/cyclic peptides of protein N of SARS-CoV Urbani / Binding of serum London to looped/cyclic peptides of protein N of SARS-CoV Urbani / Binding of serum SARS-green to looped/cyclic peptides of protein N of SARS-CoV Urbani: unit not given here.

As for DVIISSIVRQLFKPL, in test [1], the “Rabbit serum linear peptides” value was determined as 0.5 and the “Rabbit serum looped peptides” value is 0.2. For the same sequence, in test [2], the “Binding of Control Serum Blood-Bank to Looped peptides of the protein X3 of SARS-CoV Urbani” value was determined as 0.5, the “Binding of Control serum Blood-bank to linear peptides of the protein X3 of SARS-CoV Urbani” value is reported as 0.6, the “Binding of Control serum LUMC to linear peptides of the protein X3 of SARS-CoV Urbani” value stood at 0.4 and the “Binding of Control serum LUMC to looped peptides of the protein X3 of SARS-CoV Urbani” value was determined as 0.5. Also, in test [3], the “Binding of serum 1a to linear peptides of protein X3 of SARS-CoV Urbani” value is listed as 0.7, the “Binding of serum 1a to looped/cyclic peptides of protein X3 of SARS-CoV Urbani” value came to 0.6, the “Binding of serum 1b to linear peptides of protein X3 of SARS-CoV Urbani” value is on record as 0.4 and the “Binding of serum 1b to looped/cyclic peptides of protein X3 of SARS-CoV Urbani” value is 0.2. In test [3], the “Binding of serum 2 to linear peptides of protein X3 of SARS-CoV Urbani” value turned out to be 0.5, the “Binding of serum 2 to looped/cyclic peptides of protein X3 of SARS-CoV Urbani” value is recorded as 0.5, the “Binding of serum 6 to linear peptides of protein X3 of SARS-CoV Urbani” value came to 0.3 and the “Binding of serum 6 to looped/cyclic peptides of protein X3 of SARS-CoV Urbani” value came out at 0.6. For the same sequence, in test [3], the “Binding of serum 37 to linear peptides of protein X3 of SARS-CoV Urbani” value was found to be 0.6, the “Binding of serum 37 to looped/cyclic peptides of protein X3 of SARS-CoV Urbani” value is listed as 0.5, the “Binding of serum 62 to linear peptides of protein X3 of SARS-CoV Urbani” value was found to be 0.6 and the “Binding of serum 62 to looped/cyclic peptides of protein X3 of SARS-CoV Urbani” value is 0.4. Further, in test [3], the “Binding of serum London to linear peptides of protein X3 of SARS-CoV Urbani” value was 0.6, the “Binding of serum London to looped/cyclic peptides of protein X3 of SARS-CoV Urbani” value was 0.6, the “Binding of serum SARS-green to linear peptides of protein X3 of SARS-CoV Urbani” value amounted to 0.3 and the “Binding of serum SARS-green to looped/cyclic peptides of protein X3 of SARS-CoV Urbani” value was 0.4. For the same sequence, in test [3], the “Binding of serum SARS-yellow to linear peptides of protein X3 of SARS-CoV Urbani” value is 0.2 and the “Binding of serum SARS-yellow to looped/cyclic peptides of protein X3 of SARS-CoV Urbani” value amounted to 0.5.
Turning to ELKQLLEQWNLVIGF, in test [1], the “Rabbit serum linear peptides” value is recorded as 0.0 and the “Rabbit serum looped peptides” value was 0.2. In addition, in test [2], the “Binding of Control Serum Blood-Bank to Looped peptides of the protein M of SARS-CoV Urbani” value is 0.6, the “Binding of Control serum Blood-bank to linear peptides of the protein M of SARS-CoV Urbani” value came out at 0.8, the “Binding of Control serum LUMC to linear peptides of the protein M of SARS-CoV Urbani” value came to 0.7 and the “Binding of Control serum LUMC to looped peptides of the protein M of SARS-CoV Urbani” value is 0.7. Further, in test [3], the “Binding of serum 1a to linear peptides of protein M of SARS-CoV Urbani” value was 0.8, the “Binding of serum 1a to looped/cyclic peptides of protein M of SARS-CoV Urbani” value turned out to be 0.6, the “Binding of serum 1b to linear peptides of protein M of SARS-CoV Urbani” value stood at 0.8 and the “Binding of serum 1b to looped/cyclic peptides of protein M of SARS-CoV Urbani” value stood at 0.6. For the same sequence, in test [3], the “Binding of serum 2 to linear peptides of protein M of SARS-CoV Urbani” value came to 0.5, the “Binding of serum 2 to looped/cyclic peptides of protein M of SARS-CoV Urbani” value came out at 0.5, the “Binding of serum 6 to linear peptides of protein M of SARS-CoV Urbani” value is recorded as 0.6 and the “Binding of serum 6 to looped/cyclic peptides of protein M of SARS-CoV Urbani” value stood at 0.8. Also, in test [3], the “Binding of serum 37 to linear peptides of protein M of SARS-CoV Urbani” value turned out to be 0.6, the “Binding of serum 37 to looped/cyclic peptides of protein M of SARS-CoV Urbani” value was 0.7, the “Binding of serum 62 to linear peptides of protein M of SARS-CoV Urbani” value came out at 0.5 and the “Binding of serum 62 to looped/cyclic peptides of protein M of SARS-CoV Urbani” value came out at 0.5. In addition, in test [3], the “Binding of serum London to linear peptides of protein M of SARS-CoV Urbani” value stood at 0.6, the “Binding of serum London to looped/cyclic peptides of protein M of SARS-CoV Urbani” value is listed as 0.3, the “Binding of serum SARS-green to linear peptides of protein M of SARS-CoV Urbani” value is 0.5 and the “Binding of serum SARS-green to looped/cyclic peptides of protein M of SARS-CoV Urbani” value came to 0.7. Further, in test [3], the “Binding of serum SARS-yellow to linear peptides of protein M of SARS-CoV Urbani” value is listed as 0.3 and the “Binding of serum SARS-yellow to looped/cyclic peptides of protein M of SARS-CoV Urbani” value came out at 0.9.
